Key:
Assay type in all cases: physicochemical
[1] = Binary solvent evaporation crystallisation of sorbate salt (Example 10, Experiment 6); conditions: sorbate salt Form A evaporated from MeOH (10 vol) plus solvent B (5 vol), one solvent B per sample
Source text: Each vial was capped with aluminium foil, pierced, and allowed to stand undisturbed until the evaporation is completed.

[2] = Suspension equilibration (competitive; ageing cycle; drying of wet pellets), relative stability of forms
Description: FIG. 94 depicts the XRPD overlay of, form top to bottom, a mixture of Tabernanthalog·0.5 Fumarate and Tabernanthalog·Fumarate equilibrated in acetonitrile at 20° C., a mixture of Tabernanthalog·0.5 Fumarate and Tabernanthalog·Fumarate equilibrated in acetonitrile at 40° C. and Tabernanthalog fumarate Pattern 19.
FIG. 283 depicts the timepoints of the suspension equilibration in tBME at 20° C. XRPD diffractogram overlay of, from top to bottom, Sample B-A2 (Form B, Pattern #2a), 8-A4 (Form A, Pattern #6a), 16-A1 (t=24 h, 16-A2 (t=48 h), 16-A3 (t=108 h), 16-A4 (t=192 h) 16-A8 (t=4 weeks).
FIG. 284 depicts the timepoints of the suspension equilibration in tBME at 40° C. XRPD diffractogram overlay of, from top to bottom, Sample B-A2 (Form B, Pattern #2a), 8-A4 (Form A, Pattern #6a), 16-B1 (t=24 h, 16-B2 (t=48 h), 16-B3 (t=108 h), 16-B4 (t=192 h) 16-B8 (t=4 weeks).

[3] = Evaporation screen of the monofumarate salt (Experiment Reference 14); conditions: input Sample Reference 1, Solvent A DMSO, Solvent B: 14-A EtOH; for XRPD crystallinity (wet pellet): 14-B nBuOH (disordered), 14-C water (high background); for XRPD crystallinity (oven dried): 14-B nBuOH, 14-C water
Description: Crystallization of the API was examined by changing the composition of the crystallization solvent by evaporation of a volatile diluent. This technique is useful for generating kinetic forms and solvates. Separate portions of the tabernanthalog monofumarate salt (Pattern #1, Sample Reference 1, ca 50 mg, 1.0 wt.) were charged to separate vessels. DMSO (100 μl, 2.0 vol, refer to Table 132) was charged to the relevant vessels and subsequent charges of the appropriate co-solvent (900 μl, 18.0 vol) were made to accomplish dissolution. The vials were covered with an aluminum foil cap and pierced with a single hole, then left to stand at 20° C. After 6 days, gentle nitrogen flux was applied to dryness. The products were analyzed by XRPD and companion analyses, for evidence of alternative crystalline forms.

[4] = Competitive suspension equilibration monofumarate Form A and Form B (Experiment Reference 16); conditions: 16-A at 20 °C, 16-B at 40 °C
Description: Competitive suspension equilibration (Form A and Form B) (Experiment Reference 16) a. Experimental Procedure Equimolar quantities of Form A (Pattern #6a, 25.4 mg, 1 wt, 8-A4; (Experiment Reference 8-Sample Reference A4)) and Form B (Pattern #2a, 25.0 mg, 1 wt, Sample B-A2) were suspended in tBME (250 μl, 5.0 vol). The first experiment was agitated at 20° C., (16-A) (Experiment Reference 16-Sample Reference A), while the other was agitated at 40° C. (16-B) (Experiment Reference 16-Sample Reference B). The suspension was monitored by XRPD analysis.
Competitive suspension equilibration of Form A (8-A4) (Experiment Reference 8-Sample Reference A4) versus Form B (Sample B-A2) was performed at 20° C. […] Summary of competitive suspension equilibration between Form A and Form B (16-A (Experiment Reference 16-Sample Reference A) and 16-B (Experiment Reference 16-Sample Reference B)) is provided in Table 153A.

[5] = Vapour diffusion of the monofumarate salt (Experiment Reference 13); conditions: input Sample Reference 1, Solvent A DMSO, Solvent B: 13-B TBME, 13-C water, patterns v. disordered
Description: The tabernanthalog monofumarate salt (Sample Reference 1, Pattern #1, 3×75 mg, 1 wt) was weighed out in to 3 separate snap-top vials and DMSO (375 ul, 5 vol) was charged to each vial. Gentle warning was applied to ensure full dissolution and the vials (open) were placed inside amber jars that contained 6 ml of DCM (13-A) (Experiment Reference 13-Sample Reference A), tBME (13-B) (Experiment Reference 13-Sample Reference B) and water (13-C) (Experiment Reference 13-Sample Reference C).
The 3 jars that contained the vials were left standing at 20° C., to allow slow movement of the diffusant solvent from the outer jar into the solvent inside the smaller, open wide-necked vessel and promote crystallization by altering the solvent composition.

[6] = Stability of Tabernanthalog·Sorbate·HemiHFIPA at 75% RH, 20° C. and 40° C.; conditions: 5 days; for HFIPA content after storage / powder pattern after storage: 75% RH, 20° C. and 40° C.; for HFIPA content after storage: 19F NMR; for powder pattern after storage: XRPD; for Outcome: input Experiment 3-Sample A2
Description: Stability of the salt (Table 302) at elevated relative humidity was examined at 20 and 40° C., to determine if the HFIPA solvent can be replaced by water to generate the isomorphic hydrate.
Experimental reference: Experiment 3-Sample B1, Experiment 3-Sample C1 Tabernanthalog·Sorbate·HemiHFIPA (Experiment 3-Sample A2, 28.2 mg, 1 wt) was charged into a wide necked solid sample vial, the uncapped vial was placed inside a larger amber jar containing an aqueous NaCl slurry. The amber jar was sealed and left to stand for 5 days. The specimen analysed by XRPD, ^19F NMR, TGA and DSC after 5 days.

[7] = Re-proportionation examination hemifumarate / monofumarate (Example 5, Experiment References 5 and 10)
Description: (5-B4; Experiment Reference 5-Sample Reference B4) and 40° C. (5-B5; Experiment Reference 5-Sample Reference B5). The output was analyzed by XRPD (FIG. 94).
Purified water (250 ml, 5 vol) was subsequently added, and the suspension was stirred at 50° C. for ca. 24 h.
Purified water (250 ml, 5 vol) was subsequently added, and the suspension was stirred at 20° C. for ca. 24 h.

[8] = Stability panel of salts, open vial / double-bagged vial, t=5 d and 10 d; conditions: input Form A
Source text: FIG. 797 depicts the overlay of, from top to bottom, XRPD of Experiment 1-Sample A2 (Form A), Experiment 10-Sample A1 (5 days, open vial Pattern #2), Experiment 10-Sample A2 (10 days, open vial, Pattern #2), Experiment 10-Sample B1 (5 days, double-bagged vial, Form A) and Experiment 10-Sample B2 (10 days, double-bagged vial, Pattern #2).

[9] = listed as Tabernanthalog·Sorbate·hemiHFIPA

CC=CC=CC(=O)O.COc1ccc2c3c([nH]c2c1)CCN(C)CC3 [Experiment 6-Sample A]
XRPD (dried under nitrogen) [1]: Pattern #1

CC=CC=CC(=O)O.COc1ccc2c3c([nH]c2c1)CCN(C)CC3 [Experiment 6-Sample C]
XRPD (dried under nitrogen) [1]: Form A

C/C=C/C=C/C(=O)O.COc1ccc2c3c([nH]c2c1)CCN(C)CC3 [Experiment 6-Sample D]
XRPD (dried under nitrogen) [1]: Form A

C/C=C/C=C/C(=O)O.COc1ccc2c3c([nH]c2c1)CCN(C)CC3 [Experiment 6-Sample E]
XRPD (dried under nitrogen) [1]: Form A

COc1ccc2c3c([nH]c2c1)CCN(C)CC3 [Form B]
form change under competitive suspension equilibration conditions ([2]; in the presence of Form A): slowly evolves into Form A

COc1ccc2c3c([nH]c2c1)CCN(C)CC3.O=C(O)/C=C/C(=O)O [Pattern 14-A]
XRPD crystallinity (wet pellet) [3]: (Pattern #23)

COc1ccc2c3c([nH]c2c1)CCN(C)CC3.O=C(O)/C=C/C(=O)O [Pattern 14-B]
XRPD crystallinity (wet pellet) [3]: (Pattern #23)

COc1ccc2c3c([nH]c2c1)CCN(C)CC3.O=C(O)/C=C/C(=O)O [Pattern 14-C]
XRPD crystallinity (wet pellet) [3]: (Pattern #6a)

COc1ccc2c3c([nH]c2c1)CCN(C)CC3.O=C(O)/C=C/C(=O)O [Pattern 16-A]
XRPD (4 weeks, -A8) ([4]; competitive suspension equilibration of Form A and Form B in TBME (5.0 vol), t = 4 weeks): Form A > Form B | XRPD (48 h, -A2) ([4]; competitive suspension equilibration of Form A and Form B in TBME (5.0 vol), t = 48 h): Form A > Form B | XRPD (108 h, -A3) ([4]; competitive suspension equilibration of Form A and Form B in TBME (5.0 vol), t = 108 h): Form A > Form B | XRPD (192 h, -A4) ([4]; competitive suspension equilibration of Form A and Form B in TBME (5.0 vol), t = 192 h): Form A >> Form B

COc1ccc2c3c([nH]c2c1)CCN(C)CC3.O=C(O)/C=C/C(=O)O [Pattern 16-B]
XRPD (24 h, -A1) ([4]; competitive suspension equilibration of Form A (8-A4) and Form B (Sample B-A2) in TBME (5.0 vol), t = 24 h): Form A > Form B

COc1ccc2c3c([nH]c2c1)CCN(C)CC3.O=C(O)/C=C/C(=O)O [Sample 13-B]
XRPD crystallinity (oven dried) [5]: Pattern #24 | XRPD crystallinity (wet pellet) [5]: Pattern #24

COc1ccc2c3c([nH]c2c1)CCN(C)CC3.O=C(O)/C=C/C(=O)O [Sample 13-C]
XRPD crystallinity (oven dried) [5]: Pattern #23 | XRPD crystallinity (wet pellet) [5]: Pattern #23

COc1ccc2c3c([nH]c2c1)CCN(C)CC3.O=C(O)/C=C/C(=O)O [Sample 14-A]
XRPD crystallinity (oven dried) [3]: Pattern 23

COc1ccc2c3c([nH]c2c1)CCN(C)CC3.O=C(O)/C=C/C(=O)O [Sample 14-B]
XRPD crystallinity (oven dried) [3]: Pattern 23

COc1ccc2c3c([nH]c2c1)CCN(C)CC3.O=C(O)/C=C/C(=O)O [Sample 14-C]
XRPD crystallinity (oven dried) [3]: Pattern 6a

C/C=C/C=C/C(=O)O.C/C=C/C=C/C(=O)O.COc1ccc2c3c([nH]c2c1)CCN(C)CC3.COc1ccc2c3c([nH]c2c1)CCN(C)CC3.OC(C(F)(F)F)C(F)(F)F [Tabernanthalog·Sorbate·HemiHFIPA]
HFIPA content after storage [6]: small decrease in HFIPA content | HFIPA content after storage [6, 9]: partial loss of HFIPA | powder pattern after storage [6]: No change in powder pattern observed | powder pattern after storage [6, 9]: No change in the powder pattern was observed

CC=CC=CC(=O)O.CC=CC=CC(=O)O.COc1ccc2c3c([nH]c2c1)CCN(C)CC3.COc1ccc2c3c([nH]c2c1)CCN(C)CC3.OC(C(F)(F)F)C(F)(F)F [Tabernanthalog•Sorbate•hemiHFIPA]
Outcome ([6]; 75% RH 20° C.): HemiHFIPA | Outcome ([6]; 75% RH 40° C.): HemiHFIPA

COc1ccc2c3c([nH]c2c1)CCN(C)CC3 [tabernanthalog hemifumarate]
change of salt stoichiometry during an ageing cycle ([2]; ageing cycle): re-proportionated into the fumarate salt | re-proportionation of the hemi-salt into the monofumarate salt ([7]; Expt. #1: equilibrated in acetonitrile at 20° C., 20 h time point): did not re-proportionate | outcome of competitive equilibration of hemifumarate and monofumarate ([7]; Expt. #2: acetonitrile, 48 h at 20° C. and 18 h at 40° C., XRPD): re-proportionation into the unary-fumarate appeared to be favored over the hemi-fumarate

C/C=C/C=C/C(=O)O.COc1ccc2c3c([nH]c2c1)CCN(C)CC3 [tabernanthalog sorbate salt Form A]
form by XRPD after stability storage ([8]; 5 days, double-bagged vial): Form A | form by XRPD after stability storage ([8]; 5 days, open vial): Pattern #2 | form by XRPD after stability storage ([8]; 10 days, double-bagged vial): Pattern #2
